# Source: US7622275B2, “Aequorin as a growth marker in yeast” (Sanofi-Aventis Deutschland GmbH, priority 2001, dated 2009)
# Where two headings read alike, the source gives them in different places.
# How the values were obtained:
# S. cerevisiae [1] = test system: S. cerevisiae
# S. cerevisiae [2] = details: 100 μM in SC Glucose-Trp
# S. cerevisiae [3] = experiment: Aequorin growth marker signal upon toxic treatment (pYX132TPI-AEQ strain); assay type: cell-based, Saccharomyces cerevisiae; details: for Aequorin signal: 100 μM in SC Glucose-Trp; for Aequorin difference between toxic treatment and normal growth: 100 μM
# Procedure: As a yeast strain W303 MAT a, far::hisG, sst2::URA3^FOA, fus1::HIS3 was used.
# The cells are distributed and/or grown in a white 96-well plate, in a volume of 100 μl.
# 30 minutes before the measurement time point, 10 μl of a 5 μM coelenterazine (Molecular Probes) solution is distributed in each well (to obtain a 0.5 μM final concentration) to load the cells.
# The plate is then incubated at 30° C. for the last 30 minutes.
# Aequorin detection is made in a luminometer with injecting system (Luminoskan, Labsystems). For each well, immediately after injection of a 10 mM CaCl2 solution (1 M CaCl2 diluted in lysis buffer Y-PER from Pierce), the luminescent signal is integrated for 15 seconds.
# To avoid the intermediate step of loading, it is possible to introduce coelenterazine in the medium at the beginning of the assay: coelenterazine is added at a concentration of 0.5 μM.
# (i.e. only half of the normal signal), and the starving cells give a signal of 64 r.l.u.
compound,measurement,setting,value
O=C1Cc2cc(CCN3CCN(c4nsc5ccccc45)CC3)c(Cl)cc2N1 [Ziprasidone],toxic effects on S. cerevisiae,S. cerevisiae [1],high toxic effects
same,OD630,"S. cerevisiae [1]; 100 μM in SC Glucose-Trp, after 24 hours treatment, normal growth over 1",0.5-0.7
same,β-Galactosidase signal,"S. cerevisiae [2]; after 5 hours of treatment, normal growth 276, starving cells 64",116 r.l.u.
same,β-Galactosidase signal,"S. cerevisiae [2]; after 24 hours treatment, non treated cells 2275",1923 r.l.u.
same,Aequorin signal,"S. cerevisiae [3]; after 5 hours of treatment, normal growth 138, starving cells 16",10 r.l.u.
same,Aequorin signal,"S. cerevisiae [3]; after 24 hours treatment, normal growth 175",50 r.l.u.
same,Aequorin difference between toxic treatment and normal growth,S. cerevisiae [3]; after 5 hours of treatment,10 fold
same,Aequorin difference between toxic treatment and normal growth,S. cerevisiae [3]; after 24 hours treatment,3.5 fold
